Reference: patent US4341784A, “Naphthyridine derivatives” (priority 1979, dated 1982)
Entries after “also recorded” stand apart in the source; their conditions may differ. Like-named read-outs stand apart in the source and are kept apart here.

How the values were obtained:
[1] = system: Staphylococcus aureus No. 50774; test: In vivo efficacy against systemic infections in mice (intravenous infection); set-up: species or system male mice (ddY); conditions: NO.50774, 336 h, po, twice, about 5 minutes and 6 hours after intravenous infection, observed 14 days
Procedure: Each of the solutions was orally administered to mice infected with each of test organisms under the conditions described below, and the medium effective doses (ED50) obtained are shown in Table II. Male mice (ddY) weighing about 20 g (1) Staphylococcus aureus No. 50774: Intravenous infection with about 5×10^8 cells per mouse suspended in saline. Twice, about 5 minutes and 6 hours after infection. |Staphylococcus aureus No. 50774 | for 14 days | The numerals in the table show ED50 (mg/kg). ED50 values were | calculated in accordance with the BehrensKaerber method (Arch. Exp. Path. | Pharm., 162, 480 (1931)). | po: oral administration.

in vivo = conditions: for LD50 at 168 h: mouse, in vivo, po; for acute oral toxicity (in words): hydrochloride
Procedure: A solution containing each of Compounds 1 and 2 of this invention in various concentrations was orally given to male mice (ddY) at a dose of 0.1 ml per 10 g of body weight. The number of dead mice was counted after 7 days, and the value of median lethal dose (LD50, mg/kg) was calculated in accordance with the Behrens-Kaerber method.

[2] = system: Gram-positive and Gram-negative bacteria including Pseudomonas aeruginosa; test: In vitro antibacterial activity, overall; type: cell-based; conditions: for in vitro antibacterial activity compared with known compounds (in words): b258: Gram-negative bacteria, versus Compounds A, B, D and E, b33: versus compounds A and B; for antibacterial activity (in words): in vitro, Gram-positive and Gram-negative bacteria
Procedure: (§1) The minimum inhibitory concentrations (MIC, μg/ml) of the following compounds in vitro were measured by the agar dilution method of [Chemotherapy, Vol. 22, No. 16, page 1126 (1974)].

[3] = system: Salmonella enteritidis No. 1891; test: In vitro antibacterial activity (MIC, agar dilution method); type: cell-based; conditions: Salmonella enterica; Salmonella enteritidis No. 1891; agar dilution; read-out: minimum inhibitory concentration (MIC)
Procedure: as §1

[4] = system: Streptococcus faecalis P-2473; test: as above; type: cell-based; conditions: Enterococcus faecalis, P2473; Streptococcus faecalis P-2473; agar dilution; read-out: minimum inhibitory concentration (MIC)
Procedure: as §1

[5] = system: Streptococcus pyogenes 65A; test: as above; type: cell-based; conditions: Streptococcus pyogenes 65A; agar dilution; read-out: minimum inhibitory concentration (MIC)
Procedure: as §1

[6] = system: Pseudomonas aeruginosa No. 12; test: as above; type: cell-based; conditions: Pseudomonas aeruginosa No. 12; agar dilution; read-out: minimum inhibitory concentration (MIC)
Procedure: as §1

Shigella flexneri 2a = test: as above; type: cell-based; conditions: read-out: minimum inhibitory concentration (MIC)
Procedure: as §1

[7] = system: Shigella flexneri 4a P-330; test: as above; type: cell-based; conditions: 4AP330, read-out: minimum inhibitory concentration (MIC)
Procedure: as §1

[8] = system: Escherichia coli NIHJ JC-2; test: as above; type: cell-based
Procedure: as §1

[9] = system: Staphylococcus aureus No. 50774; test: as above; type: cell-based; conditions: Staphylococcus aureus No. 50774; agar dilution; read-out: minimum inhibitory concentration (MIC)
Procedure: as §1

[10] = system: Klebsiella pneumoniae No. 13; test: as above; type: cell-based; conditions: Klebsiella pneumoniae No. 13; agar dilution; read-out: minimum inhibitory concentration (MIC)
Procedure: as §1

[11] = system: Staphylococcus aureus Smith; test: as above; type: cell-based; conditions: Staphylococcus aureus Smith; agar dilution; read-out: minimum inhibitory concentration (MIC)
Procedure: as §1

[12] = system: Enterobacter cloacae P-2540; test: as above; type: cell-based; conditions: P2540; Enterobacter cloacae P-2540; agar dilution; read-out: minimum inhibitory concentration (MIC)
Procedure: as §1

[13] = system: Staphylococcus aureus 209P JC-1; test: as above; type: cell-based; conditions: Staphylococcus aureus 209P JC-1; agar dilution; read-out: minimum inhibitory concentration (MIC)
Procedure: as §1

[14] = system: Staphylococcus aureus No. 80; test: as above; type: cell-based
Procedure: as §1

Proteus mirabilis P-2381 = test: as above; type: cell-based; conditions: P2381; Proteus mirabilis P-2381; agar dilution; read-out: minimum inhibitory concentration (MIC)
Procedure: as §1

Escherichia coli P-5101 = test: as above; type: cell-based; conditions: P5101; Escherichia coli P-5101; agar dilution; read-out: minimum inhibitory concentration (MIC)
Procedure: as §1

[15] = system: Corynebacterium pyogenes C-21; test: as above; type: cell-based; conditions: C21; Corynebacterium pyogenes C-21; agar dilution; read-out: minimum inhibitory concentration (MIC)
Procedure: as §1

[16] = system: Pseudomonas aeruginosa Tsuchiijima; test: as above; type: cell-based; conditions: Pseudomonas aeruginosa Tsuchiijima; agar dilution; read-out: minimum inhibitory concentration (MIC)
Procedure: as §1

Escherichia coli P-140a = test: as above; type: cell-based; conditions: P140A; Escherichia coli P-140a; agar dilution; read-out: minimum inhibitory concentration (MIC)
Procedure: as §1

[17] = system: Salmonella typhimurium S-9; test: as above; type: cell-based; conditions: Salmonella enterica; Salmonella typhimurium S-9; agar dilution; read-out: minimum inhibitory concentration (MIC)
Procedure: as §1

Proteus morganii Kono = test: as above; type: cell-based; conditions: Morganella morganii; Proteus morganii Kono; agar dilution; read-out: minimum inhibitory concentration (MIC)
Procedure: as §1

[18] = system: Serratia marcescens IFO 3736; test: as above; type: cell-based; conditions: IFO3736; Serratia marcescens IFO 3736; agar dilution; read-out: minimum inhibitory concentration (MIC)
Procedure: as §1

[19] = system: Staphylococcus epidermidis No. 8; test: as above; type: cell-based; conditions: Staphylococcus epidermidis No. 8; agar dilution; read-out: minimum inhibitory concentration (MIC)
Procedure: as §1

[20] = system: Gram-positive and Gram-negative bacteria including Pseudomonas aeruginosa; test: In vivo efficacy against systemic infections, overall; set-up: species or system male mice (ddY); conditions: for therapeutic effect on systemic infections (in words): Gram-positive and Gram-negative bacteria; for therapeutic effect compared with Compound C (in words): systemic infections with Gram-negative bacteria including Pseudomonas aeruginosa
Procedure: Compounds 1, 2 and C were each dissolved in deionized water or suspended in a 0.2% aqueous solution of CMC. Each of the solutions was orally administered to mice infected with each of test organisms under the conditions described below, and the medium effective doses (ED50) obtained are shown in Table II.
Male mice (ddY) weighing about 20 g
Twice, about 5 minutes and 6 hours after infection.

Structure (SMILES)	ED50 [1]	LD50 at 168 h (in vivo)	acute oral toxicity (in words) (in vivo)	in vitro antibacterial activity compared with known compounds (in words) [2]	antibacterial activity (in words) [2]	MIC [3]	MIC [4]	MIC [5]	MIC [6]	MIC (Shigella flexneri 2a)	MIC [7]	MIC [9]	MIC [10]	MIC [11]	MIC [12]	MIC [13]	MIC (Proteus mirabilis P-2381)	MIC (Escherichia coli P-5101)	MIC [15]	MIC [16]	also measured
CCn1cc(C(=O)O)c(=O)c2cc(F)c(N3CCC(NC)C3)nc21.Cl (stereo not shown) [Compound 2, 1-Ethyl-6-fluoro-1,4-dihydro-7-(3-methylamino-1-pyrrolidinyl)-4-oxo-1,8-naphthyridine-3-carboxylic acid hydrochloride]	4.8 mg/kg	> 2000 mg/kg	very weak; also recorded: low oral toxicity	far better in vitro antibacterial activity	very high antibacterial activities	0.1 µg/mL	6.25 µg/mL	3.13 µg/mL	1.56 µg/mL	0.2 µg/mL	0.1 µg/mL	0.78 µg/mL	0.39 µg/mL	0.78 µg/mL	0.39 µg/mL	0.78 µg/mL	1.56 µg/mL	0.2 µg/mL	1.56 µg/mL	0.78 µg/mL	MIC ([8]; Escherichia coli, NIHJJC2, read-out: minimum inhibitory concentration (MIC)): 0.2 µg/mL; MIC ([14]; Staphylococcus aureus No. 80, agar dilution, read-out: minimum inhibitory concentration (MIC)): 0.78 µg/mL; MIC (Escherichia coli P-140a): 0.1 µg/mL; MIC [17]: 0.2 µg/mL; MIC (Proteus morganii Kono): 0.39 µg/mL; MIC [18]: 1.56 µg/mL; MIC [19]: 0.39 µg/mL; therapeutic effect on systemic infections (in words) [20]: potent therapeutic effects; therapeutic effect compared with Compound C (in words) [20]: better therapeutic effects
CCn1cc(C(=O)O)c(=O)c2cc(F)c(N3CCC(N)C3)nc21.Cl (stereo not shown) [Compound 1, 7-(3-Amino-1-pyrrolidinyl)-1-ethyl-6-fluoro-1,4-dihydro-4-oxo-1,8-naphthyridine-3-carboxylic acid hydrochloride]	3 mg/kg	> 2000 mg/kg	very weak; also recorded: low oral toxicity	far better in vitro antibacterial activity	very high antibacterial activities	0.1 µg/mL	3.13 µg/mL	1.56 µg/mL	0.78 µg/mL	0.1 µg/mL	0.1 µg/mL	0.2 µg/mL	0.2 µg/mL	0.39 µg/mL	< 0.05 µg/mL	0.2 µg/mL	0.39 µg/mL	0.1 µg/mL	0.39 µg/mL	0.78 µg/mL	MIC ([8]; NIHJJC2, Escherichia coli NIHJ JC-2, agar dilution, read-out: minimum inhibitory concentration (MIC)): 0.2 µg/mL; MIC ([14]; Staphylococcus aureus, NO.80, read-out: minimum inhibitory concentration (MIC)): 0.39 µg/mL; MIC (Escherichia coli P-140a): < 0.05 µg/mL; MIC [17]: 0.1 µg/mL; MIC (Proteus morganii Kono): 0.2 µg/mL; MIC [18]: 0.39 µg/mL; MIC [19]: 0.2 µg/mL; therapeutic effect on systemic infections (in words) [20]: potent therapeutic effects; therapeutic effect compared with Compound C (in words) [20]: better therapeutic effects
